± gives the standard deviation of the averaged measurements.
How the values were obtained:
Danio rerio embryo [1] = test: EC20 Eye-jaw distance_Decrease; higher = less potent; settings: exposure time: 4 dpf
Experimental: (§1)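 Zebrafish embryos (UFZ-OBI strain) were exposed from 2 hpf for 48 h (2 dpf) or 96 h (4 dpf) at 28 °C; spontaneous tail coiling was scored at 25 hpf. Morphological features from automated image analysis (FishInspector), heart rate and locomotor response were fitted with drc models. Quantal endpoints were dichotomised at 2.5 SD from controls and fitted with a log-logistic model; heart rate, pigmentation and STC were normalised to the replicate control mean. Betamethasone was tested as betamethasone dipropionate, diflorasone as diflorasone diacetate.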

Danio rerio embryo [2] = test: EC20 Curvature_Increase; higher = less potent
Experimental: as §1

Danio rerio embryo [3] = test: EC20 LMR dark; higher = less potent; settings: exposure time: 4 dpf
Experimental: as §1

Danio rerio embryo [4] = test: EC50 Body length_Decrease
Experimental: as §1

Danio rerio embryo [5] = test: EC20 Any effect; higher = less potent
Experimental: as §1

Danio rerio embryo [6] = test: EC10 Body length_Decrease; higher = less potent
Experimental: as §1

Danio rerio embryo [7] = test: EC20 Otolith-eye distance_Decrease; higher = less potent; settings: exposure time: 4 dpf
Experimental: as §1

Danio rerio embryo [8] = test: EC10 Yolk sac size_Increase; higher = less potent; settings: exposure time: 4 dpf
Experimental: as §1

Danio rerio embryo [9] = tested on: Danio rerio embryo
Experimental: as §1

Danio rerio embryo [10] = test: EC10 Curvature_Increase; higher = less potent
Experimental: as §1

Danio rerio embryo [11] = test: EC10 Any effect; higher = less potent
Experimental: as §1

Danio rerio embryo [12] = test: EC10 Bladder size_Decrease; higher = less potent; settings: exposure time: 4 dpf
Experimental: as §1

Danio rerio embryo [13] = test: EC10 Pericard size_Increase; higher = less potent; settings: exposure time: 4 dpf
Experimental: as §1

Danio rerio embryo [14] = test: EC10 Otolith-eye distance_Decrease; higher = less potent; settings: exposure time: 4 dpf
Experimental: as §1

Danio rerio embryo [15] = test: EC50 Eye-jaw distance_Decrease; settings: exposure time: 4 dpf
Experimental: as §1

Danio rerio embryo [16] = test: EC10 LMR dark; higher = less potent; settings: exposure time: 4 dpf
Experimental: as §1

Danio rerio embryo [17] = test: EC20 Yolk sac size_Increase; higher = less potent; settings: exposure time: 4 dpf
Experimental: as §1

Danio rerio embryo [18] = test: EC50 Yolk sac size_Increase; settings: exposure time: 4 dpf
Experimental: as §1

Danio rerio embryo [19] = settings: exposure time: 4 dpf
Experimental: as §1

Danio rerio embryo [20] = test: EC20 Bladder size_Decrease; higher = less potent; settings: exposure time: 4 dpf
Experimental: as §1

Danio rerio embryo [21] = test: EC50 Otolith-eye distance_Decrease; settings: exposure time: 4 dpf
Experimental: as §1

Danio rerio embryo [22] = test: EC50 Bladder size_Decrease; settings: exposure time: 4 dpf
Experimental: as §1

Danio rerio embryo [23] = test: spontaneous tail coiling frequency (coils/min/embryo); higher = more spontaneous movement; settings: 25 hpf
Experimental: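 Spontaneous tail coilings of zebrafish embryos exposed from 2 hpf were recorded at 24-25 hpf in 1-min videos and detected by a KNIME workflow from grey-value variance. Betamethasone was tested as the dipropionate, diflorasone as the diacetate.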

Danio rerio embryo [24] = test: EC20 Pericard size_Increase; higher = less potent; settings: exposure time: 4 dpf
Experimental: as §1

Danio rerio embryo [25] = test: EC10 Eye-jaw distance_Decrease; higher = less potent; settings: exposure time: 4 dpf
Experimental: as §1

Danio rerio embryo [26] = test: EC50 Pericard size_Increase; settings: exposure time: 4 dpf
Experimental: as §1

Danio rerio embryo [27] = test: EC20 Body length_Decrease; higher = less potent
Experimental: as §1

Danio rerio embryo [28] = test: EC50 Curvature_Increase
Experimental: as §1

CCOC(=O)N1CCC(=C2c3ccc(Cl)cc3CCc3cccnc32)CC1 [Loratadine]
Settings	EC10 Bladder size Decrease [µM]	EC10 Eye-jaw distance Decrease [µM]	EC10 LMR dark [µM]	EC10 Otolith-eye distance Decrease [µM]	EC10 Pericard size Increase [µM]	EC10 Yolk sac size Increase [µM]	EC20 Bladder size Decrease [µM]	EC20 Eye-jaw distance Decrease [µM]	EC20 LMR dark [µM]	EC20 Otolith-eye distance Decrease [µM]	EC20 Pericard size Increase [µM]	EC20 Yolk sac size Increase [µM]	EC50 Bladder size Decrease [µM]	EC50 Eye-jaw distance Decrease [µM]	EC50 LMR dark [µM]	EC50 Otolith-eye distance Decrease [µM]	EC50 Pericard size Increase [µM]	EC50 Yolk sac size Increase [µM]
Danio rerio embryo [1]	–	–	–	–	–	–	–	5.67	–	–	–	–	–	–	–	–	–	–
Danio rerio embryo [3]	–	–	–	–	–	–	–	–	0.318	–	–	–	–	–	–	–	–	–
Danio rerio embryo [7]	–	–	–	–	–	–	–	–	–	4.62	–	–	–	–	–	–	–	–
Danio rerio embryo [8]	–	–	–	–	–	4.91	–	–	–	–	–	–	–	–	–	–	–	–
Danio rerio embryo [12]	0.165	–	–	–	–	–	–	–	–	–	–	–	–	–	–	–	–	–
Danio rerio embryo [13]	–	–	–	–	3.01	–	–	–	–	–	–	–	–	–	–	–	–	–
Danio rerio embryo [14]	–	–	–	4.17	–	–	–	–	–	–	–	–	–	–	–	–	–	–
Danio rerio embryo [15]	–	–	–	–	–	–	–	–	–	–	–	–	–	6.86	–	–	–	–
Danio rerio embryo [16]	–	–	0.279	–	–	–	–	–	–	–	–	–	–	–	–	–	–	–
Danio rerio embryo [17]	–	–	–	–	–	–	–	–	–	–	–	6.74	–	–	–	–	–	–
Danio rerio embryo [18]	–	–	–	–	–	–	–	–	–	–	–	–	–	–	–	–	–	11.6
Danio rerio embryo [19]	–	–	–	–	–	–	–	–	–	–	–	–	–	–	0.399	–	–	–
Danio rerio embryo [20]	–	–	–	–	–	–	0.201	–	–	–	–	–	–	–	–	–	–	–
Danio rerio embryo [21]	–	–	–	–	–	–	–	–	–	–	–	–	–	–	–	5.49	–	–
Danio rerio embryo [22]	–	–	–	–	–	–	–	–	–	–	–	–	0.282	–	–	–	–	–
Danio rerio embryo [24]	–	–	–	–	–	–	–	–	–	–	4.72	–	–	–	–	–	–	–
Danio rerio embryo [25]	–	5.07	–	–	–	–	–	–	–	–	–	–	–	–	–	–	–	–
Danio rerio embryo [26]	–	–	–	–	–	–	–	–	–	–	–	–	–	–	–	–	10.2	–

Settings	EC10 Any effect [µM]	EC10 Body length Decrease [µM]	EC10 Curvature Increase [µM]	EC20 Any effect [µM]	EC20 Body length Decrease [µM]	EC20 Curvature Increase [µM]	EC50 Any effect [µM]	EC50 Body length Decrease [µM]	EC50 Curvature Increase [µM]	EC50 STC decrease [µM]	spontaneous tail coiling frequency
Danio rerio embryo [2], exposure time: 2 dpf	–	–	–	–	–	4.48	–	–	–	–	–
Danio rerio embryo [4], exposure time: 2 dpf	–	–	–	–	–	–	–	7.83	–	–	–
Danio rerio embryo [4], exposure time: 4 dpf	–	–	–	–	–	–	–	0.442	–	–	–
Danio rerio embryo [5], exposure time: 2 dpf	–	–	–	5.01	–	–	–	–	–	–	–
Danio rerio embryo [5], exposure time: 4 dpf	–	–	–	0.398	–	–	–	–	–	–	–
Danio rerio embryo [6], exposure time: 2 dpf	–	5.13	–	–	–	–	–	–	–	–	–
Danio rerio embryo [6], exposure time: 4 dpf	–	0.383	–	–	–	–	–	–	–	–	–
Danio rerio embryo [9], exposure time: 2 dpf	–	–	–	–	–	–	6.4	–	–	–	–
Danio rerio embryo [9], exposure time: 4 dpf	–	–	–	–	–	–	0.438	–	–	–	–
Danio rerio embryo [9], exposure time: 25 h	–	–	–	–	–	–	–	–	–	6.63	–
Danio rerio embryo [10], exposure time: 2 dpf	–	–	3.56	–	–	–	–	–	–	–	–
Danio rerio embryo [11], exposure time: 2 dpf	4.34	–	–	–	–	–	–	–	–	–	–
Danio rerio embryo [11], exposure time: 4 dpf	0.376	–	–	–	–	–	–	–	–	–	–
Danio rerio embryo [23], 0.155 µM	–	–	–	–	–	–	–	–	–	–	2.97
Danio rerio embryo [23], 0.31 µM	–	–	–	–	–	–	–	–	–	–	1.28
Danio rerio embryo [23], 0.61 µM	–	–	–	–	–	–	–	–	–	–	1.66
Danio rerio embryo [23], 1.22 µM	–	–	–	–	–	–	–	–	–	–	1.82 ± 0.75
Danio rerio embryo [23], 2.45 µM	–	–	–	–	–	–	–	–	–	–	2.58 ± 0.62
Danio rerio embryo [23], 4.9 µM	–	–	–	–	–	–	–	–	–	–	1.79 ± 0.028
Danio rerio embryo [23], 9.79 µM	–	–	–	–	–	–	–	–	–	–	0.505 ± 0.32
Danio rerio embryo [27], exposure time: 2 dpf	–	–	–	–	6	–	–	–	–	–	–
Danio rerio embryo [27], exposure time: 4 dpf	–	–	–	–	0.404	–	–	–	–	–	–
Danio rerio embryo [28], exposure time: 2 dpf	–	–	–	–	–	–	–	–	6.62	–	–

CN(Cc1cnc2nc(N)nc(N)c2n1)c1ccc(C(=O)N[C@@H](CCC(=O)O)C(=O)O)cc1 [Methotrexate]
Settings	EC10 Bladder size Decrease [µM]	EC10 Eye-jaw distance Decrease [µM]	EC10 LMR dark [µM]	EC10 Otolith-eye distance Decrease [µM]	EC10 Pericard size Increase [µM]	EC10 Yolk sac size Increase [µM]	EC20 Bladder size Decrease [µM]	EC20 Eye-jaw distance Decrease [µM]	EC20 LMR dark [µM]	EC20 Otolith-eye distance Decrease [µM]	EC20 Pericard size Increase [µM]	EC20 Yolk sac size Increase [µM]	EC50 Bladder size Decrease [µM]	EC50 Eye-jaw distance Decrease [µM]	EC50 LMR dark [µM]	EC50 Otolith-eye distance Decrease [µM]	EC50 Pericard size Increase [µM]	EC50 Yolk sac size Increase [µM]
Danio rerio embryo [1]	–	–	–	–	–	–	–	146	–	–	–	–	–	–	–	–	–	–
Danio rerio embryo [3]	–	–	–	–	–	–	–	–	206	–	–	–	–	–	–	–	–	–
Danio rerio embryo [7]	–	–	–	–	–	–	–	–	–	154	–	–	–	–	–	–	–	–
Danio rerio embryo [8]	–	–	–	–	–	20.2	–	–	–	–	–	–	–	–	–	–	–	–
Danio rerio embryo [12]	95.7	–	–	–	–	–	–	–	–	–	–	–	–	–	–	–	–	–
Danio rerio embryo [13]	–	–	–	–	129	–	–	–	–	–	–	–	–	–	–	–	–	–
Danio rerio embryo [14]	–	–	–	116	–	–	–	–	–	–	–	–	–	–	–	–	–	–
Danio rerio embryo [15]	–	–	–	–	–	–	–	–	–	–	–	–	–	197	–	–	–	–
Danio rerio embryo [16]	–	–	186	–	–	–	–	–	–	–	–	–	–	–	–	–	–	–
Danio rerio embryo [17]	–	–	–	–	–	–	–	–	–	–	–	44.7	–	–	–	–	–	–
Danio rerio embryo [18]	–	–	–	–	–	–	–	–	–	–	–	–	–	–	–	–	–	173
Danio rerio embryo [19]	–	–	–	–	–	–	–	–	–	–	–	–	–	–	243	–	–	–
Danio rerio embryo [20]	–	–	–	–	–	–	99.9	–	–	–	–	–	–	–	–	–	–	–
Danio rerio embryo [21]	–	–	–	–	–	–	–	–	–	–	–	–	–	–	–	248	–	–
Danio rerio embryo [22]	–	–	–	–	–	–	–	–	–	–	–	–	108	–	–	–	–	–
Danio rerio embryo [24]	–	–	–	–	–	–	–	–	–	–	193	–	–	–	–	–	–	–
Danio rerio embryo [25]	–	122	–	–	–	–	–	–	–	–	–	–	–	–	–	–	–	–
Danio rerio embryo [26]	–	–	–	–	–	–	–	–	–	–	–	–	–	–	–	–	385	–

Settings	EC10 Any effect [µM]	EC10 Body length Decrease [µM]	EC10 Curvature Increase [µM]	EC20 Any effect [µM]	EC20 Body length Decrease [µM]	EC20 Curvature Increase [µM]	EC50 Any effect [µM]	EC50 Body length Decrease [µM]	EC50 Curvature Increase [µM]	EC50 LMR ligth decrease [µM]	spontaneous tail coiling frequency
Danio rerio embryo [2], exposure time: 2 dpf	–	–	–	–	–	168	–	–	–	–	–
Danio rerio embryo [2], exposure time: 4 dpf	–	–	–	–	–	188	–	–	–	–	–
Danio rerio embryo [4], exposure time: 2 dpf	–	–	–	–	–	–	–	241	–	–	–
Danio rerio embryo [4], exposure time: 4 dpf	–	–	–	–	–	–	–	214	–	–	–
Danio rerio embryo [5], exposure time: 2 dpf	–	–	–	126	–	–	–	–	–	–	–
Danio rerio embryo [5], exposure time: 4 dpf	–	–	–	55.2	–	–	–	–	–	–	–
Danio rerio embryo [6], exposure time: 2 dpf	–	151	–	–	–	–	–	–	–	–	–
Danio rerio embryo [6], exposure time: 4 dpf	–	104	–	–	–	–	–	–	–	–	–
Danio rerio embryo [9], exposure time: 2 dpf	–	–	–	–	–	–	207	–	–	–	–
Danio rerio embryo [9], exposure time: 4 dpf	–	–	–	–	–	–	116	–	–	127	–
Danio rerio embryo [10], exposure time: 2 dpf	–	–	133	–	–	–	–	–	–	–	–
Danio rerio embryo [10], exposure time: 4 dpf	–	–	172	–	–	–	–	–	–	–	–
Danio rerio embryo [11], exposure time: 2 dpf	93.9	–	–	–	–	–	–	–	–	–	–
Danio rerio embryo [11], exposure time: 4 dpf	35.7	–	–	–	–	–	–	–	–	–	–
Danio rerio embryo [23], 43.5 µM	–	–	–	–	–	–	–	–	–	–	3.02
Danio rerio embryo [23], 65.2 µM	–	–	–	–	–	–	–	–	–	–	3.58 ± 0.63
Danio rerio embryo [23], 97.8 µM	–	–	–	–	–	–	–	–	–	–	2.42 ± 0.82
Danio rerio embryo [23], 146.7 µM	–	–	–	–	–	–	–	–	–	–	1.83 ± 0.26
Danio rerio embryo [23], 220.1 µM	–	–	–	–	–	–	–	–	–	–	2.71 ± 0.25
Danio rerio embryo [23], 330.1 µM	–	–	–	–	–	–	–	–	–	–	3.53 ± 1.3
Danio rerio embryo [23], 440.1 µM	–	–	–	–	–	–	–	–	–	–	3.51
Danio rerio embryo [27], exposure time: 2 dpf	–	–	–	–	180	–	–	–	–	–	–
Danio rerio embryo [27], exposure time: 4 dpf	–	–	–	–	136	–	–	–	–	–	–
Danio rerio embryo [28], exposure time: 2 dpf	–	–	–	–	–	–	–	–	250	–	–
Danio rerio embryo [28], exposure time: 4 dpf	–	–	–	–	–	–	–	–	219	–	–

— the supplement of paper PMC9013687
